Assay results: publication PMC11003488 (Journal of Enzyme Inhibition and Medicinal Chemistry, 2023)

Tests used:
Type in all cases: cell-based
Conditions in all cases: Homo sapiens
A549/ATCC = assay: NCI-60 SRB growth inhibition, one-dose and five-dose
MALME-3M = assay: as above
MDA-MB-468 = assay: as above
DU-145 = assay: as above
NCI/ADR-RES = assay: as above
M14 = assay: as above
OVCAR-5 = assay: as above
NCI-H226 = assay: as above
SK-MEL-5 = assay: as above
HT29 = assay: as above
IGROV1 = assay: as above
SNB-75 = assay: as above
MDA-MB-435 = assay: as above
HOP-92 = assay: as above
SF-268 = assay: as above
NCI-H460 = assay: as above
HOP-62 = assay: as above
LOX IMVI = assay: as above
SK-MEL-28 = assay: as above
OVCAR-4 = assay: as above
PC-3 = assay: as above
RXF 393 = assay: as above
UACC-62 = assay: as above
SW-620 = assay: as above
TK-10 = assay: as above
MOLT-4 = assay: as above
HS 578 T = assay: as above
K-562 = assay: as above
HL-60(TB) = assay: cells
NCI-H522 = assay: NCI-60 SRB growth inhibition, one-dose and five-dose
CCRF-CEM = assay: as above
SNB-19 = assay: as above
786-0 = assay: as above
A498 = assay: as above
SK-OV-3 = assay: as above
SR = assay: as above
SF-295 = assay: as above
U251 = assay: as above
NCI-H322M = assay: as above
BT-549 = assay: as above
SF-539 = assay: as above
COLO 205 = assay: as above
[1] = read-out: percent growth inhibition

## CC(=O)Nc1ccc(/C=C/C(=O)c2cccc(NCc3ccc(C)cc3)c2)cc1 [Compound 5f, (E)-N-(4–(3-(3-((4-methylbenzyl)amino)phenyl)-3-oxoprop-1-en-1-yl)phenyl)acetamide]
A549/ATCC; A549
  GI50: 24.6 µM
A549/ATCC; A549, read-out: percent growth inhibition
  inhibition at 10 µM: 30.5%
MALME-3M
  GI50: 12.3 µM
MALME-3M; [1]
  inhibition at 10 µM: 31.1%
MDA-MB-468; MDA-MB-468
  GI50: 4.23 µM
MDA-MB-468; MDA-MB-468, read-out: percent growth inhibition
  inhibition at 10 µM: 85.6%
DU-145; DU-145
  GI50: 7.44 µM
DU-145; DU-145, read-out: percent growth inhibition
  inhibition at 10 µM: 62.1%
NCI/ADR-RES
  GI50: 3.72 µM
M14; M14
  GI50: 14 µM
M14; M14, read-out: percent growth inhibition
  inhibition at 10 µM: 54.7%
OVCAR-5; OVCAR-5
  GI50: 18.5 µM
OVCAR-5; OVCAR-5, read-out: percent growth inhibition
  inhibition at 10 µM: 29.2%
NCI-H226; NCI-H226
  GI50: 13.7 µM
NCI-H226; NCI-H226, read-out: percent growth inhibition
  inhibition at 10 µM: 21.8%
SK-MEL-5; SK-MEL-5
  GI50: 7.24 µM
SK-MEL-5; SK-MEL-5, read-out: percent growth inhibition
  inhibition at 10 µM: 49.6%
HT29; HT-29
  GI50: 10.7 µM
HT29; HT-29, read-out: percent growth inhibition
  inhibition at 10 µM: 128%
IGROV1; IGROV-1
  GI50: 12.9 µM
IGROV1; IGROV-1, read-out: percent growth inhibition
  inhibition at 10 µM: 39%
SNB-75; SNB-75
  GI50: 12.5 µM
SNB-75; SNB-75, read-out: percent growth inhibition
  inhibition at 10 µM: 32.3%
MDA-MB-435; MDA-MB-435
  GI50: 6.21 µM
MDA-MB-435; MDA-MB-435, read-out: percent growth inhibition
  inhibition at 10 µM: 35.7%
HOP-92; HOP-92
  GI50: 15.5 µM
HOP-92; HOP-92, read-out: percent growth inhibition
  inhibition at 10 µM: 8.52%
SF-268; SF-268
  GI50: 4.58 µM
SF-268; SF-268, read-out: percent growth inhibition
  inhibition at 10 µM: 45.8%
NCI-H460; NCI-H460
  GI50: 4.18 µM
NCI-H460; NCI-H460, read-out: percent growth inhibition
  inhibition at 10 µM: 68%
HOP-62; HOP-62
  GI50: 13.9 µM
HOP-62; HOP-62, read-out: percent growth inhibition
  inhibition at 10 µM: 13.9%
LOX IMVI
  GI50: 2.97 µM
LOX IMVI; [1]
  inhibition at 10 µM: 157%
SK-MEL-28; SK-MEL-28
  GI50: 15.2 µM
SK-MEL-28; SK-MEL-28, read-out: percent growth inhibition
  inhibition at 10 µM: 25%
OVCAR-4; OVCAR-4
  GI50: 6.18 µM
OVCAR-4; OVCAR-4, read-out: percent growth inhibition
  inhibition at 10 µM: 56.1%
PC-3; PC-3
  GI50: 12.7 µM
PC-3; PC-3, read-out: percent growth inhibition
  inhibition at 10 µM: 67.2%
RXF 393; RXF 393
  GI50: 10.9 µM
RXF 393; RXF 393, read-out: percent growth inhibition
  inhibition at 10 µM: 32.9%
UACC-62; UACC-62
  GI50: 10.8 µM
UACC-62; UACC-62, read-out: percent growth inhibition
  inhibition at 10 µM: 48.7%
SW-620; SW-620
  GI50: 2.17 µM
SW-620; SW-620, read-out: percent growth inhibition
  inhibition at 10 µM: 156%
TK-10; TK-10
  GI50: 13.8 µM
TK-10; TK-10, read-out: percent growth inhibition
  inhibition at 10 µM: -10.1%
MOLT-4; MOLT-4
  GI50: 2.69 µM
MOLT-4; MOLT-4, read-out: percent growth inhibition
  inhibition at 10 µM: 62%
HS 578 T
  GI50: 15.4 µM
HS 578 T; [1]
  inhibition at 10 µM: 47%
K-562; K562
  GI50: 3.04 µM
K-562; K562, read-out: percent growth inhibition
  inhibition at 10 µM: 64.2%
HL-60(TB); HL-60
  GI50: 3.99 µM
HL-60(TB); HL-60, read-out: percent growth inhibition
  inhibition at 10 µM: 52%
NCI-H522; NCI-H522
  GI50: 11 µM
NCI-H522; NCI-H522, read-out: percent growth inhibition
  inhibition at 10 µM: 106%
CCRF-CEM
  GI50: 2.84 µM
CCRF-CEM; [1]
  inhibition at 10 µM: 87.2%
SNB-19; SNB-19
  GI50: 12.4 µM
SNB-19; SNB-19, read-out: percent growth inhibition
  inhibition at 10 µM: 31.4%
786-0; 786-0
  GI50: 10.3 µM
786-0; 786-0, read-out: percent growth inhibition
  inhibition at 10 µM: 60.4%
A498; A498
  GI50: 17.9 µM
A498; A498, read-out: percent growth inhibition
  inhibition at 10 µM: -0.63%
SK-OV-3; SK-OV-3
  GI50: 25.8 µM
SK-OV-3; SK-OV-3, read-out: percent growth inhibition
  inhibition at 10 µM: 31.6%
SR
  GI50: 1.51 µM
SR; [1]
  inhibition at 10 µM: 96.5%
SF-295; SF-295
  GI50: 15.7 µM
SF-295; SF-295, read-out: percent growth inhibition
  inhibition at 10 µM: 27.7%
U251; U-251
  GI50: 3.89 µM
U251; U-251, read-out: percent growth inhibition
  inhibition at 10 µM: 127%
NCI-H322M
  GI50: 15.1 µM
NCI-H322M; [1]
  inhibition at 10 µM: 22.5%
BT-549; BT-549
  GI50: 5.26 µM
BT-549; BT-549, read-out: percent growth inhibition
  inhibition at 10 µM: 66%
SF-539; SF-539
  GI50: 9.33 µM
SF-539; SF-539, read-out: percent growth inhibition
  inhibition at 10 µM: 153%
COLO 205; COLO 205
  GI50: 16 µM
COLO 205; COLO 205, read-out: percent growth inhibition
  inhibition at 10 µM: 53.7%
